Experimental data published in ChEMBL document CHEMBL3886543, “Quinoline derivatives useful as CB-1 inverse agonists” (2016).
pEC50: −log10 of the molar value.

Experiments:
Cannabinoid receptor 1 [1] = target: T1, Cannabinoid receptor 1 (Homo sapiens, UniProt P21554); assay: Membranes were purchased from Perkin Elmer.
Cannabinoid receptor 2 [2] = target: T2, Cannabinoid receptor 2 (Homo sapiens, UniProt P34972); assay: Membranes were prepared as described in FELDER, C. C., et al., Molecular Pharmacology, 1992, pp 838-845, Vol. 42.
Cannabinoid receptor 2 [3] = target: T2, Cannabinoid receptor 2; assay: (§1) cAMP Assay: The following mixtures and buffer solutions were prepared: (a) Buffer 1: HBSS (Mediatech Cat#21-023-CV) with 5 mM HEPES (1 mM stock, Gibco BRL Cat#15630-056) and 0.1% BSA (7.5% stock, Invitrogen Cat#15260-037); (b) Buffer 2: 0.5 mM IBMX (200 mM stock in DMSO, Sigma 15879) in Buffer 1; (c) 1 uM cAMP Standard (50 uM stock, Perkin Elmer Cat# AD0262) diluted in Buffer 2 and serially diluted in Buffer 2, 12 doses at 1/2 dilutions resulting in a dose range of 1 uM to 0.5 nM; (d) d2 labelled cAMP (CisBio HTRF Detection Kit Cat #62AM4PEB reconstituted with 6 ml dH2O) diluted 1/20 with lysis buffer (CisBio HTRF Detection Kit Cat #62AM4PEB); (e) anti-cAMP (CisBio HTRF Detection Kit Cat #62AM4PEB reconstituted with 5 ml dH2O) diluted 1/20 with lysis buffer (CisBio HTRF Detection Kit Cat #62AM4PEB); and (f) Forskolin (Sigma Cat# F6886, 10 mM in DMSO) diluted first in DMSO to 1 mM and then to 1.5 uM in Buffer 2.; format: functional
Cannabinoid receptor 1 [4] = target: T1, Cannabinoid receptor 1; assay: as §1; format: functional

T2 sequence (P34972 whole entry): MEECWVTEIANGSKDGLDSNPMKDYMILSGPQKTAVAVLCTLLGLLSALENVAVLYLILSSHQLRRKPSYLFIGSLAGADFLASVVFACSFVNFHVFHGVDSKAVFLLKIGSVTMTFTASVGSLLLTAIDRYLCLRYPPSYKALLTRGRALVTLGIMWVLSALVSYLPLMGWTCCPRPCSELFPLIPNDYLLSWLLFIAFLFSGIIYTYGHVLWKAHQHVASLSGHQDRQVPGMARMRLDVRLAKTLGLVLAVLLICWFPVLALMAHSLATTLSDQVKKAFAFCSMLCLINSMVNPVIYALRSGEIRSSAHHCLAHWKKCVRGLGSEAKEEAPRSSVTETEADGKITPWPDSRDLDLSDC
T1 sequence (P21554 whole entry): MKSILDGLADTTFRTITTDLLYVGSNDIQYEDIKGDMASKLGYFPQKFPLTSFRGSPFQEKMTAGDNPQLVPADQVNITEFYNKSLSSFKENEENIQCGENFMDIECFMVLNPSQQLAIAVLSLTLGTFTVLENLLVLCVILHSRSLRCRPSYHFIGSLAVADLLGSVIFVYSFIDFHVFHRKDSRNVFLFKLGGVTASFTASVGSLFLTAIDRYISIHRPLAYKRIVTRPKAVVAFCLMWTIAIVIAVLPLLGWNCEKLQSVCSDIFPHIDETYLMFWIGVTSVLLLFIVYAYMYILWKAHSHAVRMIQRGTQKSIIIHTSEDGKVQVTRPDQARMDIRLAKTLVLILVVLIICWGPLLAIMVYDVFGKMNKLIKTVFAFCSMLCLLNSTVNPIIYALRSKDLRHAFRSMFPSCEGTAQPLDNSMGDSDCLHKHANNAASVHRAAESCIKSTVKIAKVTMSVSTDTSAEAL

Row | pEC50 (Cannabinoid receptor 1 [1]) | pEC50 (Cannabinoid receptor 2 [2]) | pEC50 (Cannabinoid receptor 2 [3]) | pEC50 (Cannabinoid receptor 1 [4]) | Structure (SMILES)
1 | 6.65 | – | – | – | OC(c1ccc(Cl)cc1)(c1ccsc1)c1ccc2nccc(/C=C/c3ccccc3)c2c1 (centres undefined)
2 | < 5.60 | – | – | – | Cn1c(=O)cc(CCc2cccc(Cl)c2)c2cc(C(c3ccc(Cl)cc3)c3nccs3)ccc21 (centres undefined)
3 | 8.36 | – | – | – | O=c1cc(NC2CCN(S(=O)(=O)C(F)(F)F)CC2)c2cc(C(c3ccc(Cl)cc3)c3nccs3)ccc2[nH]1 (centres undefined)
4 | 7.26 | < 5.30 | – | – | Clc1ccc(C(c2ccc3nccc(/C=C/c4ccccc4)c3c2)c2nccs2)cc1 (centres undefined)
5 | < 5.60 | – | – | – | O=c1cc(CCc2cccc(Cl)c2)c2cc(C(O)(c3ccc(Cl)cc3)c3nccs3)ccc2[nH]1 (centres undefined)
6 | 7.82 | < 5.30 | – | – | O=c1cc(/C=C/c2ccc(C(F)(F)F)cc2)c2cc(C(c3ccc(Cl)cc3)c3cccs3)ccc2[nH]1 (centres undefined)
7 | 8.92 | 7.28 | – | – | O=c1cc(NC2CCN(S(=O)(=O)C(F)(F)F)CC2)c2cc(C(c3ccc(Cl)cc3)c3ccc(Cl)cc3)ccc2[nH]1
8 | 7.00 | – | – | – | OC(c1ccc(Cl)cc1)(c1ccc2nccc(/C=C/c3ccccc3)c2c1)c1cccs1 (centres undefined)
9 | 7.01 | – | – | – | Clc1ccc(C(c2ccc3nccc(/C=C/c4ccccc4)c3c2)c2cccs2)cc1 (centres undefined)
10 | – | – | < 5.00 | < 5.00 | N=C(N)N1CCC(Nc2cc(=O)[nH]c3ccc(C(c4ccc(Cl)cc4)c4ccc(Cl)cc4)cc23)CC1
11 | 6.48 | – | – | – | O=c1cc(CCc2cccc(Cl)c2)c2cc(C(c3ccc(Cl)cc3)c3nccs3)ccc2[nH]1 (centres undefined)
12 | 7.66 | < 5.30 | – | – | O=c1cc(/C=C/c2cccc(F)c2)c2cc(C(c3ccc(Cl)cc3)c3ccsc3)ccc2[nH]1 (centres undefined)
13 | – | – | < 5.00 | 7.17 | CCOC(=O)CCCOc1ccc(Nc2cc(=O)[nH]c3ccc(C(c4ccc(Cl)cc4)c4ccc(Cl)cc4)cc23)cc1
14 | – | – | < 5.00 | 6.40 | O=c1cc(/C=C/c2ccc(C(F)(F)F)cc2)c2cc(C(c3ccc(Cl)cc3)c3nccs3)ccc2[nH]1 (centres undefined)
15 | – | – | < 5.00 | 8.30 | CC(C)(C)OC(=O)CN1CCC(Nc2cc(=O)[nH]c3ccc(C(c4ccc(Cl)cc4)c4ccc(Cl)cc4)cc23)CC1
16 | 7.28 | – | – | – | OC(c1ccc(Cl)cc1)(c1ccc(Cl)cc1)c1ccc2nccc(/C=C/c3ccccc3)c2c1
17 | 8.39 | – | – | – | Clc1ccc(C(c2ccc(Cl)cc2)c2ccc3nccc(/C=C/c4ccccc4)c3c2)cc1
18 | – | – | < 4.85 | < 4.85 | O=S(=O)(N1CCC(Nc2ccnc3c(NC4CCN(S(=O)(=O)C(F)(F)F)CC4)cc(C(c4ccc(Cl)cc4)c4ccc(Cl)cc4)cc23)CC1)C(F)(F)F
19 | – | – | < 5.00 | 7.82 | O=c1cc(Nc2ccc(Cc3ccccc3)cc2)c2cc(C(c3ccc(Cl)cc3)c3ccc(Cl)cc3)ccc2[nH]1
20 | – | – | < 5.00 | 8.00 | O=c1cc(Nc2ccc(F)c(Cl)c2)c2cc(C(c3ccc(Cl)cc3)c3ccc(Cl)cc3)ccc2[nH]1
21 | 5.73 | – | – | – | COc1ccc(C(O)(c2ccc3nccc(/C=C/c4ccccc4)c3c2)c2nccs2)cc1 (centres undefined)
22 | 7.46 | – | – | – | O=c1cc(/C=C/c2ccccc2)c2cc(C(c3ccc(Cl)cc3)c3nccs3)ccc2[nH]1 (centres undefined)

Row | Structure (SMILES) | pEC50 (Cannabinoid receptor 1 [1]) | pEC50 (Cannabinoid receptor 2 [2]) | pEC50 (Cannabinoid receptor 2 [3]) | pEC50 (Cannabinoid receptor 1 [4])
23 | O=c1cc(/C=C/c2ccccc2)c2cc(C(c3ccc(Cl)cc3)c3ccc(Cl)cc3)ccc2[nH]1 | 7.45 | – | – | –
